Laboratory results published in patent US8802082B2, “Rhodamine derivatives for photodynamic diagnosis and treatment” (Université de Montreal, priority 1999, dated 2014).

Tests used:
[1] = system: resting lymphocytes; experiment: Cellular content/efflux of TH9402 by flow cytometry, resting lymphocytes; type: cell-based, human
Description: TH9402 cellular content in resting and activated lymphocytes was evaluated by flow-cytometry, since the intensity of TH9402 (green) fluorescence correlates with the cellular content in TH9402. Briefly, 10^6 cells/ml, previously activated or not with PHA, were incubated in X-vivo-5 medium supplemented with 2.5% human AB serum and 10 μM TH9402 for 40 minutes. These cells were washed two times with X-vivo medium supplemented with 10% AB serum and cells analysed by flow cytometry 30, 50, 70, 90 and 110 min after the end of the TH9402 incorporation period. […] Since cellular concentration of TH9402 correlates with the extent of cell elimination, the high concentration of TH9402 maintained in activated lymphocytes explains their sensitivity to photodynamic therapy. In contrast, the rapid efflux of TH9402 from resting lymphocytes should explain preservation of their proliferative activity.
In order to identify the mechanism responsible for the differential retention of TH9402 between activated and resting lymphocytes, cyclosporin-A was used to block the multidrug transporter (P-gp 170). These cells were incubated with 10 μM TH9402 for 8 minutes, and washed with medium containing 1 μg/ml cyclosporin-A or medium alone. TH9402 retention was subsequently evaluated by flow-cytometry (green fluorescence) (FIG. 5). […] The functional impairment of such a pump in activated lymphocytes could explain the high levels of phototoxicity observed in these cells.

[2] = system: CEM T cell acute lymphoblastic leukemia cell line; experiment: Phototoxicity of TH9402, limiting dilution assay of clonogenic cells, CEM admixed with irradiated PBMC; type: cell-based; settings: 10 μM TH9402 40 min, 90 min dye-free, 5 joules/cm^2, LDA 12-14 days
Description: (§1) T cells represent the most important population of immune cells present in the peripheral blood. […] Phototoxicity was also evaluated in parallel against the chronic myelogenous leukemia cell line K562, that had been used in U.S. Pat. Nos. 5,556,992 and 5,773,460. The CEM T cell acute lymphoblastic leukemia cell line and K562 chronic myelogeneous leukemia cell line (Lozzio, B. B. and Lozzio, C. B. (1979) Cancer Res., 3(6): 363-370) were obtained from the American Type Culture Collection (ATCC, 12301 Parklawn Drive, Rockville, Md. 20852 USA) under the accession number CCL-119 and CCL-243. Cultures were maintained at 37° C. in a humidified incubator with an atmosphere of 95% air and 5% CO2. […] Before each experiment, cell viability was assessed by trypan blue exclusion. […]
(§2) To assess the photochemotherapeutic potential and the in vitro phototoxicity of 4,5-dibromorhodamine 123 hydrobromide (TH9402), the T cell line CEM and the leukemic line K562 admixed with normal irradiated PBMC were incubated with TH9402 and exposed to 5 joules/cm^2 of light (as described above). […] Growth at each serial dilution was assessed in an “all-or-nothing” (positive or negative) fashion under an inverted phase microscope. […]

[3] = system: activated T lymphocytes (CD25+, CD4+ and CD8+); experiment: Phenotypic analysis of residual T lymphocytes after phototherapy (CD25, CD4, CD8 flow cytometry); type: cell-based, human; settings: 10 μM TH9402; 2.5, 5 and 10 joules/cm^2; 48 to 72 hours culture; untreated 14%
Description: In order to determine if the abrogation of reactivity toward subject B obtained after PDT correlated with the loss of activated T cells, the proportion of activated cells was determined in samples exposed or not to PDT. Activated cells can be discriminated from resting T lymphocytes by their enhanced expression of CD25, which can be detected with a monoclonal antibody specific for CD25, the inducible a chain of the IL-2 receptor. Briefly, after activation of T cells in mixed lymphocyte reaction, as described above, activated T lymphocytes were incubated in X-vivo 15 medium (BioWhittaker) supplemented with 2.5% human AB serum and 10 μM TH9402 for 40 min. These cells were than washed twice with X-vivo-15 medium supplemented with 10% AB human serum. At 110 min after the end of the incubation period, cells were exposed to doses of light ranging from 2.5 to 10 joules/cm^2 of using the above described light delivery device (U.S. Pat. No. 5,798,523). Light energy was delivered using a fluorescent scanning device with maximum wavelength at 512 nm. After treatment, cells were cultured for 48 to 72 hours in X-vivo-15 medium supplemented with 15% of human AB serum. After the latter incubation period, cells were counted and their immunophenotypes analyzed by dual-color flow cytometry to determine the proportion of activated T lymphocytes. […]

[4] = system: K562 chronic myelogeneous leukemia cell line; experiment: Phototoxicity of TH9402, limiting dilution assay of clonogenic cells, K562 admixed with irradiated PBMC; type: cell-based; settings: 10 μM TH9402 40 min, 90 min dye-free, 5 joules/cm^2, LDA 12-14 days
Description: as §1, §2

Br.COC(=O)c1ccccc1-c1c2ccc(=N)c(Br)c-2oc2c(Br)c(N)ccc12 [TH9402, 4,5-dibromorhodamine 123 (2-(4,5-dibromo-6-amino-3-imino-3H-xanthen-9-yl)-benzoic acid methyl ester) hydrobromide]
cells demonstrating low TH9402 fluorescence ([1]; 10 μM TH9402 40 min, 110 minutes after the end of the incorporation period): approximately 50%
TH9402 retention with cyclosporin A versus medium alone, resting lymphocytes ([1]; 10 μM TH9402, wash with 1 μg/ml cyclosporin-A, 110 minutes): higher retention
intensity of TH9402 fluorescence, resting versus activated lymphocytes ([1]; all time-points evaluated (30-110 min)): less for resting lymphocytes than for activated lymphocytes
CEM cells escaping elimination by phototherapy in comparison to the media only sample [2]: less than 0.1%
proportion of activated T lymphocytes, both CD4+ and CD8+, after PDT [3]: below 1%
K562 cells escaping elimination by phototherapy in comparison to the media only sample [4]: less than 0.1%
